Data taken from paper PMC9736856, “Biological Investigation and Chemical Study of Brassica villosa subsp. drepanensis (Brassicaeae) Leaves” (Molecules, 2022).

How the values were obtained:
[1] = ABTS radical-scavenging assay; conditions: cell free
Protocol: In this assay, a solution of ABTS radical cations was mixed with a potassium persulphate solution and stored at room temperature for 12 h. The obtained solution was diluted with ethanol, read to obtain an absorbance of 0.70 at 734 nm, and added to the tested sample (1–400 μg/mL). After 6 min, the absorbance was read at 734 nm. Ascorbic acid was the positive control. The ABTS radical-scavenging ability was calculated with this equation: [(A0−A1)/A0] × 100, where A0 is the absorbance of the control and A1 is the absorbance in the presence of the samples.

[2] = β-carotene bleaching test
Protocol: The β-carotene bleaching test was performed following the procedure previously described, using propyl gallate as the positive control. […] The microplate was located in a water bath at 45 °C and the absorbance was read at 470 nm against a blank at t = 0 and after 30 and 60 min of incubation.

DPPH test = conditions: positive control
Protocol: Free radical-scavenging capacity was analysed through the ability of the total extract and the fractions to bleach the stable radical DPPH. […] Briefly, after 10 min at room temperature, the absorbance at λ = 517 nm of the DPPH reaction mixture containing different concentrations of […] extract (125-1000 μg/mL) in 1 mL of ethanol was recorded. Results, expressed as decrease in absorbance, represent the average ± S.D. of three independent experiments.

CaCo-2 cells = test: MTT assay, CaCo-2; assay type: cell-based; conditions: Homo sapiens, read-out: IC50 (MTT, cytotoxicity standard)
Protocol: The human foreskin fibroblast cell line HFF-1 (ATCC® SCRC-1041.1) was maintained in DMEM supplemented with 15% v/v foetal bovine serum (FBS), 4.5 g/L glucose, 100 U/mL penicillin, and […] streptomycin. HFF-1 was used as an in vitro human model for preliminary toxicity screening. Mouse leukemic monocyte-macrophage cells RAW 264.7 (Sigma-Aldrich 91062702) were cultured in EMEM supplemented with 2 mM L-Glutamine (Euroclone, Milan, Italy), 1% non-essential amino acids, 10% FBS, and penicillin/streptomycin/amphotericin. […] was used as an in vitro model of LPS-induced inflammation. Human colon carcinoma cells CaCo-2 (ATCC®, HTB-37) were cultured in DMEM supplemented with 10% FBS, 1 mmol/L sodium pyruvate, 2 mmol/L L-glutamine, streptomycin ([…]), and penicillin (50 U/mL). […]
HFF-1, RAW 264.7, CaCo-2, DU145, 1321N1, and U87 MG cells were treated with different concentrations of total extract (25–50–100–150–250–500–1000 μg/mL), while RAW 264.7 cells were also treated with the fractions obtained from the total extract (EtOAc, n-BuOH, and H2O) at the same concentrations (25–50–100–150–250–500–1000 μg/mL) for 24 h. […] The absorbance of the converted formazan was measured using a microplate spectrophotometer reader (Titertek Multiskan, Flow Laboratories, Helsinki, Finland) at λ = 570 nm. […]

[3] = SOD-like activity (superoxide anion scavenging, NADH oxidation); conditions: positive control
Protocol: The scavenger effect of B. drepanensis extract and the fractions on superoxide anions was recorded as a decrease in absorbance at λ = 340 nm, as previously reported by Salerno et al.. […] SOD (80 mU) was used as a reference compound.

## O=C1O[C@H]([C@@H](O)CO)C(O)=C1O [Ascorbic acid, ascorbic acid]
[1]
  ABTS Test IC50: 1.73 ± 0.06 µg/mL

## CCCOC(=O)c1cc(O)c(O)c(O)c1 [Propyl gallate, propyl gallate]
[2]; after 30 min of incubation
  β-Carotene Bleaching Test IC50: 0.09 ± 0.04 µg/mL
[2]; after 60 min of incubation
  β-Carotene Bleaching Test IC50: 0.09 ± 0.04 µg/mL

## Cc1c(C)c2c(c(C)c1O)CCC(C)(C(=O)O)O2 (stereo not drawn) [Trolox]
DPPH test
  IC50: 15 µM

## COc1cccc2c1C(=O)c1c(O)c3c(c(O)c1C2=O)C[C@@](O)(C(=O)CO)C[C@@H]3O[C@H]1C[C@H](N)[C@H](O)[C@H](C)O1 [doxorubicin, Doxorubicin]
CaCo-2 cells
  IC50: 21 ± 0.3 µM

## superoxide dismutase [SOD]
[3]
  SOD-like Activity IC50: 40 mU ± 0.85
